Consider 4 compounds from patent US4066510A, “Assay for mutagenesis in diploid human lymphoblasts” (Massachusetts Institute of Technology, priority 1976, dated 1978).

The structures appear in SMILES notation. Read-outs that look alike come from different tables or passages of the source.

The test system of data set [1] is Mutant Type (HGPRT-) clones (6TG^R). The experiment in a line: cells. To be noted: Homo sapiens.
Experimental: Cell survival was measured by a soft-agar plating procedure that was originally devised for mouse myeloma cells and latter extended to human lymphoblasts. […] For plating efficiencies, confluent feeder layers were used of a fibroblast strain derived from a patient afflicted with the Lesch-Nyhan syndrome. […] The feeder layer was overlayed with a separation layer formed from 2.5 ml of RPMI 1640 medium containing 0.25% agarose (M.C.I. Biomedical), which was allowed to gel at room temperature (10 min). The cells were suspended in 2.5 ml of 0.25% agarose-RPMI 1640 layered over the separator layer; this layer was then allowed to gel before the plates were incubated at 37° in humidified air containing 5% CO2. On the following day, 1.0 ml of RPMI 1640 medium was placed on each plate, and another 1.0 ml was added 6 days later. Although microscopic colonies could be counted on day 7, 14 days were allowed in order to permit an increase in colony size to about 0.4 mm because this permitted the use of an automatic colony counter (Artek Systems). Cell counts in suspension were accomplished by counting samples on an electronic particle counter (Coulter Electronics).
HGPRT activity and plating efficiencies as a function of 6TG concentration for clones sensitive (6TG^S) or resistant (6TG^R) to 10 μg/ml of 6TG were determined.
Plating efficiencies were determined following the procedure of Example 1.
Data set [2] relates to human lymphoblast line (MIT-2).
Another data set can be described thus: in vitro. To be noted: human, mit-2 lymphoblasts.
A short description of data set [3]: Stability of MNU solution (electronic absorption spectra). The class given is physicochemical. Particulars: PBS, pH 7.2, kept cold. As to the method: Crystalline form methylnitrosourea (MNU) was dessicated and preweighed into aliquots. The quantitative electronic absorption spectra of one of these preweighed aliquots dissolved in phosphate buffered saline (PBS), pH7.2, was determined and found to remain stable for more than 60 minutes when kept cold. Fresh solutions were prepared 10 minutes prior to dosing by dissolving preweighed aliquots in PBS and filter-sterilizing the solutions. They were then used immediately for dosing cultures and simultaneously characterized by electronic absorbance spectra.

In a further data set the test system is 6TG^S and 6TG^R clones. The data set can be described thus: Dose-dependent sensitivity to MNU of 6TG^R clones compared with wild-type (6TG^S).
Another data set has as its system HGPRT. Particulars: linear with time over 60 min, 5 × 10^6 cells/ml in the sonicate.

For the compound `Nc1nc2nc[nH]c2c(=S)[nH]1` [6TG, 6-thioguanine], the viability at 5 µg/mL was found to be 81% in data set [1] (P1(0.5), read-out: RELATIVE SURVIVING FRACTION, clone P10, 5 μg/ml 6TG); 94% in data set [1] (read-out: RELATIVE SURVIVING FRACTION, clone B2, 5 μg/ml 6TG); 160% in data set [1] (read-out: RELATIVE SURVIVING FRACTION, clone B4, 5 μg/ml 6TG); 110% in data set [1] (read-out: RELATIVE SURVIVING FRACTION, clone B6, 5 μg/ml 6TG); 120% in data set [1] (read-out: RELATIVE SURVIVING FRACTION, clone B7, 5 μg/ml 6TG); 100% in data set [1] (read-out: RELATIVE SURVIVING FRACTION, clone B8, 5 μg/ml 6TG). For the same compound, the viability at 5 µg/mL in data set [1] (read-out: RELATIVE SURVIVING FRACTION, clone B9, 5 μg/ml 6TG) is 110%; in data set [1] (read-out: RELATIVE SURVIVING FRACTION, clone B13, 5 μg/ml 6TG), 86%; in data set [1] (read-out: RELATIVE SURVIVING FRACTION, clone B15, 5 μg/ml 6TG), 71%; in data set [1] (read-out: RELATIVE SURVIVING FRACTION, clone B17, 5 μg/ml 6TG) it was 110%; in data set [1] (read-out: RELATIVE SURVIVING FRACTION, clone B20, 5 μg/ml 6TG), 90%; in data set [1] (read-out: RELATIVE SURVIVING FRACTION, clone P1, 5 μg/ml 6TG), 112%. Further, the viability at 5 µg/mL in data set [1] (read-out: RELATIVE SURVIVING FRACTION, clone P2, 5 μg/ml 6TG) was 173%; in data set [1] (read-out: RELATIVE SURVIVING FRACTION, clone P6, 5 μg/ml 6TG) it was 103%; in data set [1] (read-out: RELATIVE SURVIVING FRACTION, clone P7, 5 μg/ml 6TG), 80%; in data set [1] (read-out: RELATIVE SURVIVING FRACTION, clone P9, 5 μg/ml 6TG), 86%; in data set [1] (read-out: RELATIVE SURVIVING FRACTION, clone P11, 5 μg/ml 6TG), 100%; in data set [1] (read-out: RELATIVE SURVIVING FRACTION, clone P15, 5 μg/ml 6TG) it was 87%. Also, the viability at 5 µg/mL in data set [1] (read-out: RELATIVE SURVIVING FRACTION, clone P18, 5 μg/ml 6TG) worked out at 55%. Moreover, the viability at 10 µg/mL in data set [1] (read-out: RELATIVE SURVIVING FRACTION, clone B2, 10 μg/ml 6TG) was 100%; in data set [1] (read-out: RELATIVE SURVIVING FRACTION, clone B4, 10 μg/ml 6TG), 150%; in data set [1] (read-out: RELATIVE SURVIVING FRACTION, clone B6, 10 μg/ml 6TG), 82%; in data set [1] (read-out: RELATIVE SURVIVING FRACTION, clone B7, 10 μg/ml 6TG) it was 66%; in data set [1] (read-out: RELATIVE SURVIVING FRACTION, clone B8, 10 μg/ml 6TG) it was 93%; in data set [1] (read-out: RELATIVE SURVIVING FRACTION, clone B9, 10 μg/ml 6TG), 120%. The viability at 10 µg/mL in data set [1] (read-out: RELATIVE SURVIVING FRACTION, clone B13, 10 μg/ml 6TG) was 100%; in data set [1] (read-out: RELATIVE SURVIVING FRACTION, clone B15, 10 μg/ml 6TG), 87%; in data set [1] (read-out: RELATIVE SURVIVING FRACTION, clone B17, 10 μg/ml 6TG), 140%; in data set [1] (read-out: RELATIVE SURVIVING FRACTION, clone B20, 10 μg/ml 6TG), 83%; in data set [1] (read-out: RELATIVE SURVIVING FRACTION, clone D3, 10 μg/ml 6TG) it was 71%; in data set [1] (read-out: RELATIVE SURVIVING FRACTION, clone P1, 10 μg/ml 6TG), 75%. In addition, the viability at 10 µg/mL in data set [1] (read-out: RELATIVE SURVIVING FRACTION, clone P2, 10 μg/ml 6TG) is 121%; in data set [1] (read-out: RELATIVE SURVIVING FRACTION, clone P6, 10 μg/ml 6TG), 97%; in data set [1] (read-out: RELATIVE SURVIVING FRACTION, clone P7, 10 μg/ml 6TG) it was 60%; in data set [1] (read-out: RELATIVE SURVIVING FRACTION, clone P9, 10 μg/ml 6TG) it was 45%; in data set [1] (read-out: RELATIVE SURVIVING FRACTION, clone P10, 10 μg/ml 6TG), 41%; in data set [1] (read-out: RELATIVE SURVIVING FRACTION, clone P11, 10 μg/ml 6TG), 55%. The viability at 10 µg/mL came to 58% in data set [1] (read-out: RELATIVE SURVIVING FRACTION, clone P15, 10 μg/ml 6TG) and 62% in data set [1] (read-out: RELATIVE SURVIVING FRACTION, clone P18, 10 μg/ml 6TG). In addition, the viability at 20 µg/mL in data set [1] (read-out: RELATIVE SURVIVING FRACTION, clone B2, 20 μg/ml 6TG) worked out at 71%; in data set [1] (read-out: RELATIVE SURVIVING FRACTION, clone B4, 20 μg/ml 6TG), 110%; in data set [1] (read-out: RELATIVE SURVIVING FRACTION, clone B6, 20 μg/ml 6TG), 76%; in data set [1] (read-out: RELATIVE SURVIVING FRACTION, clone B7, 20 μg/ml 6TG), 57%; in data set [1] (read-out: RELATIVE SURVIVING FRACTION, clone B8, 20 μg/ml 6TG), 80%; in data set [1] (read-out: RELATIVE SURVIVING FRACTION, clone B9, 20 μg/ml 6TG) it was 68%. Further, the viability at 20 µg/mL in data set [1] (read-out: RELATIVE SURVIVING FRACTION, clone B13, 20 μg/ml 6TG) came to 45%; in data set [1] (read-out: RELATIVE SURVIVING FRACTION, clone B15, 20 μg/ml 6TG), 37%; in data set [1] (read-out: RELATIVE SURVIVING FRACTION, clone B17, 20 μg/ml 6TG), 160%; in data set [1] (read-out: RELATIVE SURVIVING FRACTION, clone B20, 20 μg/ml 6TG) it was 51%; in data set [1] (read-out: RELATIVE SURVIVING FRACTION, clone D3, 20 μg/ml 6TG) it was 73%; in data set [1] (read-out: RELATIVE SURVIVING FRACTION, clone P1, 20 μg/ml 6TG), 86%. Moreover, the viability at 20 µg/mL in data set [1] (read-out: RELATIVE SURVIVING FRACTION, clone P2, 20 μg/ml 6TG) stood at 94%; in data set [1] (read-out: RELATIVE SURVIVING FRACTION, clone P6, 20 μg/ml 6TG), 67%; in data set [1] (read-out: RELATIVE SURVIVING FRACTION, clone P7, 20 μg/ml 6TG), 54%; in data set [1] (read-out: RELATIVE SURVIVING FRACTION, clone P9, 20 μg/ml 6TG) it was 22%; in data set [1] (read-out: RELATIVE SURVIVING FRACTION, clone P10, 20 μg/ml 6TG) it was 30%; in data set [1] (read-out: RELATIVE SURVIVING FRACTION, clone P11, 20 μg/ml 6TG), 24%. Besides, the viability at 20 µg/mL in data set [1] (read-out: RELATIVE SURVIVING FRACTION, clone P15, 20 μg/ml 6TG) was found to be 27%; in data set [1] (read-out: RELATIVE SURVIVING FRACTION, clone P18, 20 μg/ml 6TG), 45%.

In the case of `CCOS(C)(=O)=O` [EMS, ethyl methane sulphonate], the “EST. INITIAL GROWTH DELAY” value in data set [2] turned out to be 0. Further, the viability at 24 h in “in vitro” came to 0.12%.

Regarding `CN(N=O)C(N)=O` [MNU, methylnitrosourea], in data set [3], the “stability of electronic absorption spectrum in solution” value was “more than 60 minutes”. Moreover, in data set [2], the “EST. INITIAL GROWTH DELAY” value amounted to 0; the “absolute plating efficiency in the absence of 6TG, stable maximum” value was “about 0.28 clones observed/particle plated”; the “population increase before the culture's apparent cessation of growth” value is “about 2.25 times”. In addition, the viability at 24 h in “in vitro” is 0.1%. In addition, in the data set on 6TG^S and 6TG^R clones (1 6TG^R clone, relatively high concentration of MNU), the “survival fraction of one 6TG^R clone” value is reported as “high survival fraction”. The “MNU toxicity, 6TG^S versus 6TG^R clones” value with 6TG^S and 6TG^R clones (4 6TG^S and 4 6TG^R clones) is given as “the average behavior of the two groups was virtually identical”.

In the case of `O=c1[nH]cnc2nc[nH]c12` [hypoxanthine], the phosphoribosylation velocity in the data set on HGPRT was 6.4 ± 0.4 mmoles of hypoxanthine/min.
